Test results from patent publication US4228304A, “Novel cyclohexanecarboxylic acid and its derivatives” (Hisamitsu Pharmaceutical Co. Inc., priority 1977, dated 1980).

Experiments:
Acute toxicity (rat) = settings: in vivo
Protocol: (§1) Each test compound suspended in 0.5% tragacanth gum-saline was administered orally, subcutaneously or intraperitoneally to animals ddY strain mouse and Wistar strain rats. The 50% lethal dose and the 95% confidence limit were calculated by Litchfield-Wilcoxon's method from the death of animals in 3 weeks following administration.

Acute toxicity (mouse) = settings: in vivo
Protocol: as §1

Acute toxicity (dog) = assay type: in vivo; settings: in vivo, po; male dog
dog = test: Acute toxicity (dog); assay type: in vivo; settings: female dog, p.o.; 30240 min
Acute toxicity (rabbit) = settings: in vivo, po; female rabbit
[1] = test system: passive cutaneous anaphylaxis in rat; test: Homologeous passive cutaneous anaphylaxis in rat; assay type: in vivo, rat (Wistar strain); settings: 100 mg/kg, orally; exuded pigment vs control
Protocol: (2) Homologeous passive cutaneous anaphylaxis in rat Each test compound suspended in 0.5% tragacanth gum-distilled water was administered orally to a group of five male Wistar strain rats (body weight 150-200 g). After one hour 0.1 ml of 5% anti-Dinitrophinol conpled Ascaris rat IgE serum-physiological sodium chloride solution was injected intradermally to dorsum of the rat. […] The animals were sacrificed by decapitation 30 minutes after the injection. Thereafter the skin of the animals were removed and the amount of the pigment exuded into the inflamed skin was determined. The percent inhibitions were calculated by the ratio of the amounts of exuded pigments to the control.

[2] = test system: Picryl Chloride induced contact dermatitis; test: Picryl Chloride induced contact dermatitis; assay type: in vivo, mouse (ddY strain); settings: Mus musculus, po; 100 mg/kg, orally; ear swelling 24 hours after second challenge
Protocol: (3) Picryl Chloride induced contact dermatitis
At first 0.1 ml of 7% picryl chloride-ethanol solution was applied to skin of the depilated abdomens (area 2.5×15 mm) of ddY-strain male mice (body weight 20-22 g). After one week each 0.02 ml of 1% picryl chloride-olive oil solution was applied topically to the ears of the mouse. […] After three days 0.1 ml of 7% picryl chloride-ethanol solution was applied again to the depilated abdomens of the mice. After one week, each 0.02 ml of 1% picryl chloride-olive oil solution per ear were applied topically to the bilateral ears, and at same time, the test compounds were administered orally. Immediately before and 24 hours after the second challenge, the thickness of the ears was measured and the swelling was calculated. The percent inhibitions were calculated by the ratio of the each swelling to the control.

[3] = test system: lung fragment of guinea pig; test: Mediator (histamine) release on lung fragment of guinea pig; assay type: cell-based, guinea pig (Hartley strain); settings: 10^-4 g/ml
Protocol: (4) Mediator release on lung fragment of guinea pig.
A group of Hartley strain male guinea pigs (body weight 250-300 g) were administered intraperitoneally anti-BPO-BGG IgE serum. The animals were sacrificed by decapitation, and those sensitized lungs were isolated for use. […] Following 10 minute incubation, the amount of the released histamine were determined by bioassay.

[4] = test system: rat adjuvant polyarthritis; test: Effect on rat adjuvant polyarthritis; assay type: in vivo, rat (Sprague Dawley strain); settings: oral daily: Compound No. 1 200 mg/kg, Ibuprofen 50 mg/kg, Prednisolone 0.5 mg/kg
Protocol: (5) Effect on rat adjuvant polyarthritis
A group of eight to ten male Sprague Dawley strain rats (body weight 240-280 g) were used. 0.1 ml of Complete Freuind's adjuvant (CFA, Mycobacterium butyricum, 100 mg/10 cc) was injected intradermally to the right hind sole.

## CC(C)CCC[C@H]1CC[C@@](C)(C(=O)O)CC1 [Compound No. 1, cis-4-isohexyl-1-methylcyclohexanecarboxylic acid]
Acute toxicity (rat); ip, female rat
  LD50 at 504 h: 1690 mg/kg
Acute toxicity (rat); ip, male rat
  LD50 at 504 h: 2070 mg/kg
Acute toxicity (rat); po, female rat
  LD50 at 504 h: > 10000 mg/kg
Acute toxicity (rat); po, male rat
  LD50 at 504 h: > 10000 mg/kg
Acute toxicity (rat); sc, female rat
  LD50 at 504 h: > 10000 mg/kg
Acute toxicity (rat); sc, male rat
  LD50 at 504 h: > 10000 mg/kg
Acute toxicity (mouse); ip, female mouse
  LD50 at 504 h: 998 mg/kg
Acute toxicity (mouse); ip, male mouse
  LD50 at 504 h: 1110 mg/kg
Acute toxicity (mouse); po, female mouse
  LD50 at 504 h: 6390 mg/kg
Acute toxicity (mouse); po, male mouse
  LD50 at 504 h: 5950 mg/kg
Acute toxicity (mouse); sc, female mouse
  LD50 at 504 h: > 10000 mg/kg
Acute toxicity (mouse); sc, male mouse
  LD50 at 504 h: > 10000 mg/kg
Acute toxicity (dog)
  LD50 at 504 h: > 5000 mg/kg
dog
  LD50: > 5000 mg/kg
Acute toxicity (rabbit)
  LD50 at 504 h: > 6000 mg/kg
[1]
  Inhibition: 28%
[2]
  inhibition in vivo at 100 mg/kg: 49%
[3]
  inhibition (released histamine): 24.2%
[4]; day 0
  Swelling percent of left hind paw (non-treatment of CFA): -1.3±1.8%
  Swelling percent of right hind paw (treatment of CFA): 118.1± 5.0%
[4]; day 1
  Swelling percent of left hind paw (non-treatment of CFA): -3.0±1.2%
  Swelling percent of right hind paw (treatment of CFA): 100.0± 5.3%
[4]; day 4
  Swelling percent of left hind paw (non-treatment of CFA): -0.8±2.0%
  Swelling percent of right hind paw (treatment of CFA): 255.4±13.8%
[4]; day 7
  Swelling percent of left hind paw (non-treatment of CFA): 4.5±3.3%
  Swelling percent of right hind paw (treatment of CFA): 216.3±12.8%
[4]; day 10
  Swelling percent of left hind paw (non-treatment of CFA): 11.8±2.4%
  Swelling percent of right hind paw (treatment of CFA): 173.8± 7.1%
[4]; day 14
  Swelling percent of left hind paw (non-treatment of CFA): 13.3±1.6%
  Swelling percent of right hind paw (treatment of CFA): 169.5± 8.0%
[4]; day 17
  Swelling percent of left hind paw (non-treatment of CFA): 13.2±1.7%
  Swelling percent of right hind paw (treatment of CFA): 166.0± 8.6%
[4]; day 21
  Swelling percent of left hind paw (non-treatment of CFA): 8.5±2.0%
  Swelling percent of right hind paw (treatment of CFA): 163.0±10.5%
